The values that follow come from publication PMC12648443, “Modifications of NU-9, a potent protein aggregation inhibitor. Properties and activity in a cellular model of amyotrophic lateral sclerosis” (Bioorganic chemistry, 2025).

On the set-up of data set [1]: method as in PMID 33634973. The following applies: mouse microsomes; cited from earlier work.
Data set [2] can be described thus: In vitro cytotoxicity, CellTiter-Glo, HEK293. It is filed as cell-based. To be noted: human, HEK293 cells. The method, then: (§1) The HepG2 and HEK293 cells were cultured in DMEM media supplemented with 10 % FBS (heat-inactivated), 1 % Pen-strep, and L-glutamine and incubated at 37 °C in humidified air with 5 % CO2 until 85–90 % confluency. The PC12 Tet-Off-SOD1^G85R YFP cells were maintained as described in 4.2. On the day before the experiments, the cells were transferred to white bottom 96 well plates (Greiner cat. 655,083) at a concentration of 50,000 cells/100 μL of media in each well and incubated overnight at 37 °C. Stock solutions of the compounds (30 mM) in DMSO were prepared and then diluted in media to obtain the six final working solutions starting at 30 μM, and serial dilutions were obtained with the lowest concentration at 0.25 μM. The media were removed and fresh media containing the compounds or the vehicle DMSO (0.1 % v/v) were transferred to the plates containing HepG2 and HEK293 cells and the plates were incubated for 24 or 48 h at 37 °C. The PC12 Tet-Off-SOD1^G85R YFP cells compound treatment was performed as described in section 4.2 and using a 9-point 2-fold serial dilution of the compounds starting at 15 μM and the lowest concentration at 0.05 μM. After incubation, the plates were cooled to room temperature and 25 μL of CellTiter-Glo® solution was added to each well. The plates were loaded into a BioTek Synergy H1 MD plate reader and shaken for 2 min, stabilized for 10 min without shaking, and then the luminescence values were read for each well (luminescence integration step 1 ms). Wells containing media with the vehicle DMSO with or without cells were used as controls to represent, respectively, the maximum viability and the lowest viability (background signal) for the cytotoxicity studies with HepG2 and HEK293 cell lines. The viability values for the assay performed with the PC12 Tet-Off-SOD1^G85R YFP cells were normalised for the vehicle (0.1 % DMSO) and (−)-MG-132 alone treatments, which represented respectively the […] viability for the assay.
(§2) The results are presented as an average of three independent experiments, each performed in triplicate, for the cytotoxicity experiments performed with HepG2 and HEK293 cells. The results for the protective screening with the PC12 Tet-Off-SOD1^G85R YFP cells are presented as an average of four replicates.

Details of data set [3]: method as in PMID 33634973. To be noted: human microsomes; cited from earlier work.
Data set [4] deals with primary hippocampal neuronal cells. Set-up: method as in PMID 40030015. The following applies: cited from earlier work.
Data set [5] relates to PC12-SOD1^G85R YFP cells co-treated with MG132. In words: Viability screening against MG132-induced toxicity, CellTiter-Glo. It is filed as cell-based. To be noted: PC12-SOD1^G85R YFP cells co-treated with MG132 and the compounds; read-out: PC12-SOD1^G85R EC50, in vitro viability screening (protection against MG132-induced toxicity). The method, then:
as §1, with “assay. […]” for “assay.”

The test system of data set [6] is cells containing SOD1 mutations associated with ALS. Further details: method as in PMID 21073276, PMID 22189273, PMID 22837812. To be noted: Fig. 1, evolution of CHD series; cited from earlier work.
For data set [7] the following is noted: pig, PAMPA, 18 h, 250 μM, pH 7.5.
Protocol: (§3) A solution of 1 × PBS (pH 7.5) was initially prepared by the dilution of a commercially available 10 × PBS solution. […] A solution of porcine brain lipid (PBL) (20 mg/mL in dodecane) was prepared, and 4 μL of this solution was used to coat the filters on the bottom of the PAMPA donor plates (Sigma Aldrich #MAIPNTR10). After air drying for 20 min, the donor plate wells were charged with 250 μL of the solutions of the test compounds or the controls. The donor plate was then placed over the acceptor plate (Sigma Aldrich #MATRNPS50), in which wells were previously filled with 1 × PBS (2 % DMSO v/v) solution. The PAMPA sandwich was closed with parafilm and incubated at 25 °C for 18 h in a humidity-saturated atmosphere with orbital agitation. […] The UV spectra (250–400 nm) of each well were acquired on a BioTek Synergy H1 MD plate reader equipped with a monochromator at room temperature.
(§4) CA(t) is the concentration of the compounds at the final time of incubation on the acceptor well; CD(0) and CD(t) are the concentration of the compounds at the initial time of incubation and at the final time of incubation on the donor well, respectively.
Data set [8] has as its system MG132-induced mutant SOD1 intracellular aggregation in PC12-SOD1^G85R YFP cells. The experiment in a line: Protection against MG132-induced mut-SOD1 intracellular aggregation (fluorescence microscopy). Type of data set: cell-based. The method, then: The PC12 Tet-Off-SOD1^G85R YFP cells were cultured in DMEM media supplemented with 10 % horse serum, 5 % Tet-approved FBS, 1 % Penstrep, 1× L-glutamine, 200 μg/mL hygromycin, 100 μg/mL G418, with 1 μg/mL Doxycycline and were incubated at 37 °C in humidified air with […] until 90–95 % confluency. To induce the expression of SOD1^G85R YFP, the Doxycycline was removed at least 4 days before the experiment. To remove the Doxycycline, the media was removed, and the cells were washed 3 times with 1xPBS. The cells were then cultured in standard culture media without Doxycycline. To set up the assay, the cells were then seeded into 96-well cell culture plates (Greiner Bio-One Catalog #655090) at a concentration of 50,000 cells/well with a final volume of 100 μL/well and incubated in the CO2 incubator at 37 °C for 24 h. The media were removed from the cells and replaced with 100 μL of media containing 0.1 % DMSO or compounds, and incubated in the CO2 incubator at 37 °C for 6 h. The media were then replaced with fresh 100 μL of media containing the diluted compounds with 0.7 μM (−)-MG-132, and the plates were incubated for 72 h under culture conditions. After 72 h, the cells were stained with Hoescht 33,342 (55 μg/mL, 10 μL/well) and imaged (lex = 358, 513 nm) using a Molecular Devices ImageXpress Micro Confocal High-Content Imaging System equipped with a 40× objective. […] Image binning was set to 2. DAPI fluorescence was captured using an exposure time of 300 ms, and FITC fluorescence was captured using an exposure time of 400 ms. A 13-plane z-series was acquired for each field of view with a step size of 3 μm. For each condition, 2 sets of 9 images were generated in a 3 × 3 grid to separately image the SOD1^G85R YFP proteins and the nuclei stained with Hoescht 33,342. Image analysis was performed with MetaXpress software (Molecular Devices) using the Transfluor module. Parameters for puncta detection (aggregates) were set with a minimum pit width of 2 μm and a maximum pit width of 5 μm. Signal intensity thresholds were defined as 700 grayscale units above the local background. The analysis provided the average area of each cell that is covered by puncta (pit/cell), which are indicated by bright green spots on the SOD1^G85RYFP image set.
The assay was performed in triplicate for each condition tested, and wells containing the media with vehicle (0.1 % DMSO) or (−)-MG-132 alone were used as controls representing the minimum and maximum aggregate formation. […] The data for EC50 determination was treated with Prism and fitted using a semi-logarithmic curve for determination of the EC50 values of NU9 and compounds 4, 6, 20 and 21.

Data set [9] is described as follows: Parallel artificial membrane permeability assay - blood brain barrier (PAMPA-BBB). The following applies: pig, PAMPA, pH 7.5.
Protocol: as §3, §4
Data set [10] has as its system primary hippocampal neurons. Set-up: method as in PMID 40030015. To be noted: cited from earlier work.
The test system of a further data set is HepG2 cells. The experiment in a line: In vitro cytotoxicity, CellTiter-Glo, HepG2. Type of data set: cell-based. The following applies: cytotoxicity EC50 (HepG2, HEK293) versus PC12-SOD1^G85R EC50. The method, then: as §1, §2
A short description of data set [11]: In vitro cytotoxicity, CellTiter-Glo, HepG2. It is filed as cell-based. To be noted: human, HepG2 cells. The method, then:
as §1, §2

With `C[C@H](Oc1cc(C(F)(F)F)cc(C(F)(F)F)c1)C1CC(=O)CC(=O)C1` [NU-9], the “t1/2 (mouse)” value in data set [1] is 52^27 min. In addition, the viability at 24 h, 30 μM in data set [2] (30 μM, 24 h, relative to untreated cells, read-out: Percentage of viable cells observed at 30 μM treatment, HEK293) worked out at 85.7%; in data set [11] (30 μM, 24 h, relative to untreated cells, read-out: Percentage of viable cells observed at 30 μM treatment, HepG2), 93.5%. Also, the viability at 48 h, 30 μM in data set [2] (30 μM, 48 h, relative to untreated cells, read-out: Percentage of viable cells observed at 30 μM treatment, HEK293) was 89.6%; in [11] (30 μM, 48 h, relative to untreated cells, read-out: Percentage of viable cells observed at 30 μM treatment, HepG2) it was 96.3%. For the same compound, the EC50 at 24 h was > 30 µM in data set [2] (cytotoxicity, 24 h) and > 30 µM in data set [11] (cytotoxicity, 24 h). Besides, the concentration for a half-maximal effect (EC50) at 48 h in data set [2] (cytotoxicity, 48 h) is > 30 µM; in data set [11] (cytotoxicity, 48 h) it was > 30 µM. In data set [3], the “t1/2 (human)” value was 74^27 min. Besides, the Amyloid-beta oligomer build-up result in [4] is listed as “capable of reducing Amyloid-beta oligomer build-up”. The concentration for a half-maximal effect (EC50) was 3.37 ± 0.26 µM in data set [5]; 0.3 µM in data set [6]; 2.52 ± 0.38 µM in [8] (PC12-SOD1^G85R YFP cells, 0.7 μM MG132, 72 h, Inactive = no decrease of aggregates at 10 μM vs vehicle). Also, in data set [7], the “Log Pe” value was −5.16. Besides, the “decrease in MG132-induced SOD-1^G85R aggregate formation” value in [8] (at 10 μM, 72 h) is on record as “marked decrease”. Besides, the apparent permeability coefficient (Papp) at 18 h, 250 μM in data set [9] came out at 6.98 ± 0.14 ×10⁻⁶ cm/s. Besides, in [10], the LC3II puncta entry is recorded as “capable of increasing LC3II puncta”. Besides, the “EC50 Fold difference” value in the data set on HepG2 cells was >12.
